In ChEMBL document CHEMBL3885881, “DrugMatrix”:

Organism: Rattus norvegicus
Experiment: DrugMatrix - Regimen: Daily Repeat
Assay type: toxicity, organism-based, Sprague-Dawley
Set-up: regimen Daily Repeat, gender Male, age 6-8 weeks
Conditions: in vivo, po, 0 mg/kg, route oral GAVAGE, dose level Control, […]; for ABSOLUTE BASOPHIL / ABSOLUTE EOSINOPHIL / ABSOLUTE LYMPHOCYTE / ABSOLUTE MONOCYTE / ABSOLUTE SEGMENTED NEUTROPHIL / BASOPHIL / EOSINOPHIL / ERYTHROCYTE COUNT / HEMATOCRIT / HEMOGLOBIN / LEUKOCYTE COUNT / LYMPHOCYTE / MEAN CORPUSCULAR HEMOGLOBIN / MEAN CORPUSCULAR HEMOGLOBIN CONCENTRATION / MEAN CORPUSCULAR VOLUME / MONOCYTE / NEUTROPHIL / NUCLEATED RED BLOOD CELLS / PLATELET COUNT: tissue Blood; for ALANINE AMINOTRANSFERASE / ALBUMIN / ALKALINE PHOSPHATASE / ASPARTATE AMINOTRANSFERASE / BLOOD UREA NITROGEN / CARBON DIOXIDE / CHLORIDE / CHOLESTEROL / CREATINE PHOSPHOKINASE / CREATININE / GLUCOSE / LACTATE DEHYDROGENASE / LIPASE / PHOSPHORUS / POTASSIUM / SODIUM / TOTAL BILIRUBIN / TOTAL PROTEIN / URIC ACID: tissue Plasma

With `CC(C)C(=O)Nc1ccc([N+](=O)[O-])c(C(F)(F)F)c1` [FLUTAMIDE] the “ABSOLUTE BASOPHIL” value (72 h, time 3 day) was 0 CELLS/uL, the “ABSOLUTE EOSINOPHIL” value (72 h, time 3 day) was 13.67 CELLS/uL and the “ABSOLUTE LYMPHOCYTE” value (72 h, time 3 day) was 10069.5 CELLS/uL. For the same molecule, the “ABSOLUTE MONOCYTE” value (72 h, time 3 day) was 50 CELLS/uL, the “ABSOLUTE SEGMENTED NEUTROPHIL” value (72 h, time 3 day) was 516.83 CELLS/uL and the BASOPHIL (72 h, time 3 day) was 0%. For the same molecule, the EOSINOPHIL (72 h, time 3 day) was 0.17%, the “ERYTHROCYTE COUNT” value (72 h, time 3 day) was 5.44 x10E6/uL and the HEMATOCRIT (72 h, time 3 day) was 33.88%. For the same molecule, the HEMOGLOBIN (72 h, time 3 day) was 13.23 G/DL, the “LEUKOCYTE COUNT” value (72 h, time 3 day) was 10.65 x10E3/uL and the LYMPHOCYTE (72 h, time 3 day) was 94.67%. The “MEAN CORPUSCULAR HEMOGLOBIN” value (72 h, time 3 day) was 24.37 pg, the “MEAN CORPUSCULAR HEMOGLOBIN CONCENTRATION” value (72 h, time 3 day) was 39.05 G/DL and the “MEAN CORPUSCULAR VOLUME” value (72 h, time 3 day) was 62.38 fL. For the same molecule, the MONOCYTE (72 h, time 3 day) was 0.67%, the NEUTROPHIL (72 h, time 3 day) was 4.5% and the “NUCLEATED RED BLOOD CELLS” value (72 h, time 3 day) was 0.33 /100WBC. For the same molecule, the “PLATELET COUNT” value (72 h, time 3 day) was 414.5 x10E3/uL, the “ALANINE AMINOTRANSFERASE” value (72 h, time 3 day) was 72 u/L and the ALBUMIN (72 h, time 3 day) was 3.75 G/DL. The “ALKALINE PHOSPHATASE” value (72 h, time 3 day) was 375 u/L, the “ASPARTATE AMINOTRANSFERASE” value (72 h, time 3 day) was 87.5 u/L and the “BLOOD UREA NITROGEN” value (72 h, time 3 day) was 14 mg/dL. For the same molecule, the “CARBON DIOXIDE” value (72 h, time 3 day) was 27.5 mmol/L, the CHLORIDE (72 h, time 3 day) was 95.83 MEQ/L and the CHOLESTEROL (72 h, time 3 day) was 68.5 mg/dL. The “CREATINE PHOSPHOKINASE” value (72 h, time 3 day) was 284.33 u/L, the CREATININE (72 h, time 3 day) was 0.16 mg/dL and the GLUCOSE (72 h, time 3 day) was 156.67 mg/dL. The “LACTATE DEHYDROGENASE” value (72 h, time 3 day) was 101.83 u/L, the LIPASE (72 h, time 3 day) was 9.67 u/L and the PHOSPHORUS (72 h, time 3 day) was 10.33 mg/dL. The POTASSIUM (72 h, time 3 day) was 5.22 MEQ/L, the SODIUM (72 h, time 3 day) was 137.67 MEQ/L and the “TOTAL BILIRUBIN” value (72 h, time 3 day) was 0.13 mg/dL. For the same molecule, the “TOTAL PROTEIN” value (72 h, time 3 day) was 5.43 G/DL, the “URIC ACID” value (72 h, time 3 day) was 0.8 mg/dL and the “ABSOLUTE BASOPHIL” value (120 h, time 5 day) was 0 CELLS/uL. The “ABSOLUTE EOSINOPHIL” value (120 h, time 5 day) was 20.67 CELLS/uL, the “ABSOLUTE LYMPHOCYTE” value (120 h, time 5 day) was 11518.33 CELLS/uL and the “ABSOLUTE MONOCYTE” value (120 h, time 5 day) was 47 CELLS/uL. The “ABSOLUTE SEGMENTED NEUTROPHIL” value (120 h, time 5 day) was 614 CELLS/uL, the BASOPHIL (120 h, time 5 day) was 0% and the EOSINOPHIL (120 h, time 5 day) was 0.17%. The “ERYTHROCYTE COUNT” value (120 h, time 5 day) was 5.61 x10E6/uL, the HEMATOCRIT (120 h, time 5 day) was 34.25% and the HEMOGLOBIN (120 h, time 5 day) was 13.38 G/DL. The “LEUKOCYTE COUNT” value (120 h, time 5 day) was 12.2 x10E3/uL, the LYMPHOCYTE (120 h, time 5 day) was 94.33% and the “MEAN CORPUSCULAR HEMOGLOBIN” value (120 h, time 5 day) was 23.83 pg. For the same molecule, the “MEAN CORPUSCULAR HEMOGLOBIN CONCENTRATION” value (120 h, time 5 day) was 39.08 G/DL, the “MEAN CORPUSCULAR VOLUME” value (120 h, time 5 day) was 61.03 fL and the MONOCYTE (120 h, time 5 day) was 0.33%. The NEUTROPHIL (120 h, time 5 day) was 5.17%, the “NUCLEATED RED BLOOD CELLS” value (120 h, time 5 day) was 0 /100WBC and the “PLATELET COUNT” value (120 h, time 5 day) was 941.83 x10E3/uL. The “ALANINE AMINOTRANSFERASE” value (120 h, time 5 day) was 68.83 u/L, the ALBUMIN (120 h, time 5 day) was 4.12 G/DL and the “ALKALINE PHOSPHATASE” value (120 h, time 5 day) was 492.67 u/L. The “ASPARTATE AMINOTRANSFERASE” value (120 h, time 5 day) was 83.33 u/L, the “BLOOD UREA NITROGEN” value (120 h, time 5 day) was 14 mg/dL and the “CARBON DIOXIDE” value (120 h, time 5 day) was 37 mmol/L. The CHLORIDE (120 h, time 5 day) was 98.67 MEQ/L, the CHOLESTEROL (120 h, time 5 day) was 56.5 mg/dL and the “CREATINE PHOSPHOKINASE” value (120 h, time 5 day) was 167.33 u/L. The CREATININE (120 h, time 5 day) was 0.17 mg/dL, the GLUCOSE (120 h, time 5 day) was 157.5 mg/dL and the “LACTATE DEHYDROGENASE” value (120 h, time 5 day) was 104.83 u/L. It also gave an LIPASE (120 h, time 5 day) of 10 u/L, a PHOSPHORUS (120 h, time 5 day) of 10.43 mg/dL and a POTASSIUM (120 h, time 5 day) of 5.46 MEQ/L. The SODIUM (120 h, time 5 day) was 143.87 MEQ/L, the “TOTAL BILIRUBIN” value (120 h, time 5 day) was 0.17 mg/dL and the “TOTAL PROTEIN” value (120 h, time 5 day) was 5.72 G/DL. For the same molecule, the “URIC ACID” value (120 h, time 5 day) was 0.85 mg/dL.
